Assay: Serum stability test
Format: in vitro ADME
Details: human, diluted human serum (25%)

Question: For `CC[C@H](C)[C@H](NC(=O)[C@@H](NC(=O)[C@@H]1CCCN1C(=O)[C@H](Cc1c[nH]cn1)NC(=O)[C@@H]1CCCN1C(=O)CN)C(C)C)C(=O)N[C@H](C(=O)N[C@H](C(=O)N[C@H](C(=O)NCC(=O)N1CCC[C@H]1C(=O)N[C@@H](Cc1c[nH]cn1)C(=O)N[C@@H](CCC(=O)O)C(=O)N[C@@H](CCC(=O)O)C(N)=O)[C@@H](C)O)[C@@H](C)CC)C(C)C` [VIVIT], which half-life at 50 µM is on record?
Answer: ~1 h

— article PMC4174996 (Journal of Medicinal Chemistry, 2014)
